Experimental data published in patent publication US10240133B2, “ERK-derived peptides and uses thereof” (Yeda Research and Development Co. Ltd., priority 2013, dated 2019).

Assays:
ERK1/2 = assay: Nuclear translocation of ERK (fluorescence microscopy, subcellular fractionation); format: cell-based
Method: FIGS. 1A-1F illustrate that EPE peptide prevents nuclear translocation of ERK1. A2352 (A), MDA-MB-231 (B) HeLa (C), T47D (D), NHEM-AD (E) and HB2 (F) cells were serum-starved, pretreated with the EPE peptides, Scr peptide (10 μM, 2 h) DMSO and then either stimulated with TPA (250 nM, 15 min) or left untreated (NS) as control. The cells were stained with αgERK1/2 Ab and DAPI. Scale-bar—15 μm.
FIGS. 12A-12D illustrate that the EPE peptide inhibits the nuclear translocation of ERK1/2. Serum-starved (0.1% FCS, 16 hr) A2352 (FIG. 12A), HeLa (FIG. 12B), MDA-MB-231 (FIG. 12C), or LOXMVI (FIG. 12D) cells were pretreated with EPE or scrambled peptides (10 μM, 2 hr). Cells were then stimulated with EGF (50 ng/ml) or left untreated, and then harvested. Subcellular fractionation of cytoplasm and nucleus was performed as below, and fractions were subjected to Western blot analysis with the indicated Abs. Subcellular Fractionation was performed as follows: Harvested cells were resuspended in 200 μl of buffer H containing 0.1% Nonidet P-40. The lysates were mixed vigorously and centrifuged immediately to yield supernatants containing the cytosolic fraction. Nuclear proteins were extracted by resuspending the nuclear pellets in 200 μl of extraction buffer, waiting on ice for 5 min, brief sonication (2×5 sec, 40 W, 4° C.), vigorous mixing, and centrifugation. Both cytosolic and nuclear fractions were subjected to Western blotting.
A2185 (A) and A2352 (B) B-Raf melanoma cells were serum-starved (16 hours, 0.1% FBS), and then either pretreated with the EPE peptides (10 μM, 2 hours) or left untreated. Then, the cells were stimulated with TPA ([…], 20 min), or left untreated (NS) DMSO as control. The cells were stained with either anti ERK1 (Santa Cruz, C16) or anti ERK2 (C14, Santa Cruz) Abs and DAPI. (C) Quantification of the number of cell in which ERK1 or ERK2 were mostly (>80%) localized in the nucleus was performed by counting 5 fields containing 100 cells per field.
FIGS. 15A-15B illustrate that the EPE peptide prevents nuclear accumulation/translocation of ERK1/2 in PLX4032-resistant melanoma cells. A2352 that were made resistant to PLX4032 (as described under Material and Methods) and A4132 PLX4032 resistant melanoma cell from patient were serum-starved (16 hours, 0.1%), pretreated with the EPE or scrambled peptide (10 μM, 2 hours) and then either stimulated with TPA (100 nM, 20 min) or left untreated (NT) as control. The cells were stained with αgERK1/2 Ab and DAPI.
Cells were fixed in 3% paraformaldehyde in PBS (20 min, 23° C.), and then permeabilized and blocked with 0.2% Triton X-100 in PBS-BSA (2%) for 20 min at 23° C. The fixed cells were sequentially incubated with appropriated Abs, (diluted in 10 μg/ml BSA/PBS) for 1 h, followed by either Cy-2 or rhodamine-conjugated secondary Abs and DAPI (diluted in BSA/PBS, 1:200) for 1 h. To follow the subcellular localization of the biotin-conjugated peptides, cells were incubated with Avidin-FITC (diluted in BSA/PBS 1:400) and DAPI. Slides were analyzed and photographed by a fluorescent microscope (Nikon, Japan, 600× magnification).

[1] = target: T1, interaction of Imp7 with ERK (Homo sapiens, UniProt O95373); assay: Coimmunoprecipitation of Imp7 with ERK; format: cell-based; conditions: HeLa cells; 10 μM, 2 hours; TPA
T1 construct: endogenous in cells; host or cells: HeLa
T1 sequence (O95373 whole entry): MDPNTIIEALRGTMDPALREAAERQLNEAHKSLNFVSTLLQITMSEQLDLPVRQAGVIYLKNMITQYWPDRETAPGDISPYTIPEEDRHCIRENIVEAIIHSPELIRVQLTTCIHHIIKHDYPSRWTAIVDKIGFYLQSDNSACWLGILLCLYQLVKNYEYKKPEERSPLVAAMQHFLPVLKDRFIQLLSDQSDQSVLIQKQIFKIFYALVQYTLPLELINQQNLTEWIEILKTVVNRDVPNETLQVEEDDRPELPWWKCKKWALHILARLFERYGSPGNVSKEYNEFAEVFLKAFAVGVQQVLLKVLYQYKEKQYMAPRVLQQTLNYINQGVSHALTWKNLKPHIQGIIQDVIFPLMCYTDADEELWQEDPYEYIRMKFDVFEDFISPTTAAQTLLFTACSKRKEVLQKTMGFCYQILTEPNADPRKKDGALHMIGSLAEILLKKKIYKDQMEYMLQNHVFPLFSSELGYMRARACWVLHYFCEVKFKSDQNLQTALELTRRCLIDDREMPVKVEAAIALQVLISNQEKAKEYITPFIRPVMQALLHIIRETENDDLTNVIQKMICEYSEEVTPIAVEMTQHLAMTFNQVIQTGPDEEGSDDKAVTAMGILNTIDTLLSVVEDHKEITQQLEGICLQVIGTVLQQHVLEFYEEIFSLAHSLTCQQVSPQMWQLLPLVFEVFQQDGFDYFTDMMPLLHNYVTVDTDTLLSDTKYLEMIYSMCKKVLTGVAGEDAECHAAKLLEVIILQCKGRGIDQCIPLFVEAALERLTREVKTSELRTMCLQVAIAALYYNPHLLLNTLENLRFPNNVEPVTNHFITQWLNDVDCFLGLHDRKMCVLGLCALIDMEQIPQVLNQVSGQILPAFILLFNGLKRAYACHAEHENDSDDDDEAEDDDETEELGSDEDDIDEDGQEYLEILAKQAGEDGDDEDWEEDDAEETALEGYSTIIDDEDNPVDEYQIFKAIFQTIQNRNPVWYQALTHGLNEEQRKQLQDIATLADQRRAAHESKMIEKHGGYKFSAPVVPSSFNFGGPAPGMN
Method: (A) EPE peptide prevents ERK1/2-importin7 interaction. HeLa cells were serum starved (0.1%, 16 hours), pretreated with EPE peptide, scrambled peptide (10 μM, 2 hours) or DMSO, and then stimulated with TPA (250 nM, 15 min). ERK1 were precipitated with αgERK1 Ab; importin7 co-immunoprecipitated with ERK1 was detected by WB with αimportin7 Ab. […] T47D, HeLa, MDA-MB-231 and A2352 cells were serum starved (0.1%, 16 hours), pretreated with EPE peptide, scrambled peptide (10 μM, 2 hours) or DMSO control, and then stimulated with TPA (250 nM, indicated times). Cell extracts were subjected to Western blot analysis with the indicated Abs. (C) EPE peptide inhibits phosphorylation of c-Myc and Elk1 in B-Raf melanomas. A2158 and A2352 cells were treated with scrambled and EPE peptide for two hours and then stimulated with the indicated concentration of TPA for 30 min. […] (D) Quantification of some of the results in B and C. […]
(i) Preparation of cellular extracts for Western Blotting: Cells were rinsed twice with ice-cold PBS and scraped into Radio-immunoprecipitation assay buffer (RIPA; 137 mM NaCl, 20 mM Tris (pH 7.4), 10% glycerol, 1% Triton X-100, 0.5% deoxycholate, 0.1% SDS, 2 mM EDTA, 1 mM PMSF, and 20 μM leupeptin). The extracts were centrifuged (20,000×g, 15 min, 4° C.), and the supernatants were further analyzed by Western blotting. […]

[2] = mouse, in vivo
Method: Female SCID mice (Harlan), 5-6 weeks of age, were inoculated s.c. into the flank region with 10^7 A2352 cells in 150 μl mixture of PBS with matrigel (2:1). Tumors were allowed to develop to the size of 5-6.5 mm in diameter (50˜110 mm^3 volume) and then the animals were randomly allocated to different treatment groups. The peptides (100 mM stock in DMSO), were diluted to the necessary concentration in PBS and boiled for 5 minutes. Then, DMSO, Scr or EPE peptides were administered by i.v. injection into the tail vein (150 μl/mouse, 3 times a week). Tumor dimensions were measured with a digital sliding caliper. Tumor volume was calculated using the formula: V=D1×D2×D3×π/6, where D1, D2, D3—represent the three mutually orthogonal growth diameters. To assess any signs of systemic toxicity, body weight was monitored, and recorded at the end of the experiment.
Tumor xenografts, lungs, livers, kidneys and hearts of animals from different treatment groups were removed and subjected for histological analysis by staining of 5 μm paraffin embedded tissue slides with H&E, and examination by light microscope. […] Briefly, paraffin embedded blocks of tumors after different treatments were cut at 4 μm thickness and stained with ERK Abs, followed by second antibodies conjugated to peroxidase and DAB staining. Representative fields of each specimen were photographed at ×20 and ×40 magnifications.

With “GQLNHILGILGEPEQED (Synthetic peptide (EPE)) [EPE peptide]” the “inhibitory effect on nuclear translocation of ERK, compared among SPS, EPE and APA peptides” value (ERK1/2) was “stronger than that of the other two”, the “inhibition of ERK1 versus ERK2 translocation” value (ERK1/2; A2185 and A2352 B-Raf melanoma cells) was “No significant differences between the inhibition of ERK1 and ERK2” and the “nuclear translocation of ERK1/2 by subcellular fractionation” value (ERK1/2; A2352, HeLa, MDA-MB-231, LOXMVI, 10 μM, 2 hr, EGF) was “same trend of inhibition”. For the same sequence, the “amount of nuclear ERK1/2 in resistant melanoma cells” value (ERK1/2; PLX4032-resistant A2352 and A4132 cells, 10 μM, 2 hours, TPA) was “reduced the amount of nuclear ERK1/2 both before and after stimulation”, the “interaction of Imp7 with ERK” value [1] was “prevented the interaction of Imp7 with ERK” and the “size or structure of the kidneys, livers and hearts” value [2] was “did not affect”. For the same sequence, the “structure of the lungs” value [2] was “not affected”.
